The supplement of paper PMC10307832

How the values were obtained:
Assay in all cases: relative viability (nuclei count vs DMSO), 5 days (fraction); higher = more cells survive
Zebularine + Dasatinib = compound: O=c1ncccn1[C@@H]1O[C@H](CO)[C@@H](O)[C@H]1O [Zebularine] + Cc1nc(Nc2ncc(C(=O)Nc3c(C)cccc3Cl)s2)cc(N2CCN(CCO)CC2)n1 [Dasatinib] (partner 0.075 µM)
In short: (§1)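 Medians of duplicate plates are given as relative viability. That measure is the nuclei count in treated wells divided by the count in vehicle wells. Counts were taken on 4× images of lung cancer cell lines in 1536-well plates, 5 days after pin-tool dosing the day after seeding with one drug alone or a fixed anchor-drug dose plus five library-drug doses (not always all listed) in √10 steps.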

Zebularine + Luminespib = compound: O=c1ncccn1[C@@H]1O[C@H](CO)[C@@H](O)[C@H]1O [Zebularine] + CCNC(=O)c1noc(-c2cc(C(C)C)c(O)cc2O)c1-c1ccc(CN2CCOCC2)cc1 [Luminespib] (partner 0.01 µM)
In short: as §1

BI-D1870 + Bortezomib = compound: CC(C)CCN1c2nc(Nc3cc(F)c(O)c(F)c3)ncc2N(C)C(=O)C1C [BI-D1870] + CC(C)C[C@H](NC(=O)[C@H](Cc1ccccc1)NC(=O)c1cnccn1)B(O)O [Bortezomib] (partner 0.002 µM)
In short: as §1

BI-D1870 + Decitabine = compound: CC(C)CCN1c2nc(Nc3cc(F)c(O)c(F)c3)ncc2N(C)C(=O)C1C [BI-D1870] + Nc1ncn([C@H]2C[C@H](O)[C@@H](CO)O2)c(=O)n1 [Decitabine] (partner 2 µM)
In short: as §1

Cell Line	relative viability (Zebularine + Dasatinib; first compound 1 µM)	relative viability (Zebularine + Dasatinib; first compound 3.162 µM)	relative viability (Zebularine + Dasatinib; first compound 31.62 µM)	relative viability (Zebularine + Dasatinib; first compound 100 µM)	relative viability (Zebularine + Luminespib; first compound 1 µM)	relative viability (Zebularine + Luminespib; first compound 3.162 µM)	relative viability (Zebularine + Luminespib; first compound 31.62 µM)	relative viability (Zebularine + Luminespib; first compound 100 µM)	relative viability (BI-D1870 + Bortezomib; first compound 0.04 µM)	relative viability (BI-D1870 + Bortezomib; first compound 0.1265 µM)	relative viability (BI-D1870 + Bortezomib; first compound 0.4 µM)	relative viability (BI-D1870 + Bortezomib; first compound 1.265 µM)	relative viability (BI-D1870 + Bortezomib; first compound 4 µM)	relative viability (BI-D1870 + Decitabine; first compound 0.04 µM)	relative viability (BI-D1870 + Decitabine; first compound 0.1265 µM)	relative viability (BI-D1870 + Decitabine; first compound 0.4 µM)	relative viability (BI-D1870 + Decitabine; first compound 1.265 µM)	relative viability (BI-D1870 + Decitabine; first compound 4 µM)	relative viability (Zebularine + Dasatinib; first compound 10 µM)	relative viability (Zebularine + Luminespib; first compound 10 µM)
NCI-H3122	0.981	0.79	0.889	0.918	0.11	0.0829	0.111	0.0803	1	0.932	1.05	1.03	0.996	0.51	0.333	0.478	0.427	0.508	–	–
PC-3 [JPC-3]	1.05	1.05	0.979	0.79	0.79	0.667	0.466	0.493	0.74	0.859	0.825	0.889	0.829	0.867	0.867	0.849	0.944	0.728	0.61	0.553
PC-14	0.301	0.198	0.0811	0.0854	0.107	0.134	0.131	0.157	0.95	0.909	0.809	0.963	0.559	0.203	0.148	0.278	0.198	0.223	0.224	0.158
RERF-LC-KJ	0.92	0.81	0.999	0.956	1.29	1.17	1.54	1.53	1.12	0.997	1.13	1.25	0.946	0.661	0.671	0.675	0.745	0.519	0.759	0.827
SK-LU-1	0.168	0.184	0.172	0.144	0.231	0.187	0.229	0.183	1.16	1.07	1.04	1.49	0.823	0.653	0.607	0.652	0.604	0.536	0.162	0.22
SW 1573	0.555	0.523	0.548	0.475	0.181	0.34	0.41	0.285	1.08	0.907	0.883	0.986	0.577	0.653	0.497	0.473	0.372	0.26	–	0.173
